Test results reported in patent US9302999B2, “Substituted triazoles as herbicides” (E. I. DU PONT DE NEMOURS AND COMPANY, priority 2012, dated 2016).

How the values were obtained:
Format in all cases: in vivo
Conditions in all cases: Preemergence, scale 0 to 100
[1] = system: dayflower, (VA) (Virginia dayflower, Commelina virginica); test: Test E pre-/postemergence: dayflower, (VA)
Excerpt: (§1) Seeds of plant species selected from corn (Zea mays), soybean (Glycine max), velvetleaf (Abutilon theophrasti), lambsquarters (Chenopodium album), poinsettia, wild (wild poinsettia, Euphorbia heterophylla), pigweed, palmer (palmer pigweed, Amaranthus palmeri), waterhemp (common waterhemp, Amaranthus rudis), smartweed (ladysthumb smartweed, Polygonum persicaria), surinam grass (Brachiaria decumbens), crabgrass, large (large crabgrass, Digitaria sanguinalis), crabgrass, Brazil (Brazilian crabgrass, Digitaria horizontalis), panicum, fall (fall panicum, Panicum dichotomiflorum), foxtail, giant (giant foxtail, Setaria faberii), foxtail, green (green foxtail, Setaria viridis), goosegrass (Eleusine indica), johnsongrass (Sorghum halepense), ragweed (common ragweed, Ambrosia elation), barnyardgrass (Echinochloa crus-galli), sandbur (southern sandbur, Cenchrus echinatus), arrowleaf sida (Sida rhombifolia), ryegrass, Italian (Italian ryegrass, Lolium multiflorum), dayflower, (VA) (Virginia dayflower, Commelina virginica), field bindweed (Convolvulus arvensis), cocklebur (common cocklebur, Xanthium strumarium), morningglory (Ipomoea coccinea), nightshade (eastern black nightshade, Solanum ptycanthum), kochia (Kochia scoparia), nutsedge, yellow (yellow nutsedge, Cyperus esculentus) and beggarticks (hairy beggarticks, Bidens pilosa) were planted into a silt loam soil and treated preemergence with test chemicals formulated in a non-phytotoxic solvent mixture which included a surfactant. At the same time, plants selected from these crop and weed species were planted in pots containing a growing medium comprising spaghnum peat moss, vermiculite, wetting agent and starter nutrients and treated with postemergence applications of some of the test chemicals formulated in the same manner. Plants ranged in height from 2 to 18 cm for postemergence treatments (1- to 4-leaf stage).
(§2) Treated plants and controls were maintained in a greenhouse for 14 to 21 days, after which time all species were compared to controls and visually evaluated. Plant response ratings, summarized in Table E, are based on a scale of 0 to 100 where 0 is no effect and 100 is complete control. A dash (-) response means no test result.

[2] = system: goosegrass (Eleusine indica); test: Test E pre-/postemergence: goosegrass
Excerpt: as §1, §2

[3] = system: ryegrass, Italian (Italian ryegrass, Lolium multiflorum); test: Test E pre-/postemergence: ryegrass, Italian
Excerpt: as §1, §2

[4] = system: cocklebur (common cocklebur, Xanthium strumarium); test: Test E pre-/postemergence: cocklebur
Excerpt: as §1, §2

[5] = system: waterhemp (common waterhemp, Amaranthus rudis); test: Test E pre-/postemergence: waterhemp
Excerpt: as §1, §2

[6] = system: corn (Zea mays); test: Test E pre-/postemergence: corn
Excerpt: as §1, §2

[7] = system: lambsquarters (Chenopodium album); test: Test E pre-/postemergence: lambsquarters
Excerpt: as §1, §2

[8] = system: soybean (Glycine max); test: Test E pre-/postemergence: soybean
Excerpt: as §1, §2

[9] = system: foxtail, green (green foxtail, Setaria viridis); test: Test E pre-/postemergence: foxtail, green
Excerpt: as §1, §2

[10] = system: sandbur (southern sandbur, Cenchrus echinatus); test: Test E pre-/postemergence: sandbur
Excerpt: as §1, §2

[11] = system: surinam grass (Brachiaria decumbens); test: Test E pre-/postemergence: surinam grass
Excerpt: as §1, §2

FC(F)(F)COc1nn(-c2ccc(C(F)(F)F)cc2)nc1Cc1ccnc(C(F)(F)F)c1 [Compound 14, 4-[[5-(2,2,2-trifluoroethoxy)-2-[4-(trifluoromethyl)phenyl]-2H-1,2,3-triazol-4-yl]methyl]-2-(trifluoromethyl)pyridine]
Plant response rating: Dayflower, VA ([1]; 16 g ai/ha): 10
Plant response rating: Dayflower, VA ([1]; 31 g ai/ha): 50
Plant response rating: Dayflower, VA ([1]; 62 g ai/ha): 60
Plant response rating: Dayflower, VA ([1]; 125 g ai/ha): 70
Plant response rating: Dayflower, VA ([1]; 250 g ai/ha): 75
Plant response rating: Goosegrass ([2]; 16 g ai/ha): 65
Plant response rating: Goosegrass ([2]; 31 g ai/ha): 100
Plant response rating: Goosegrass ([2]; 62 g ai/ha): 100
Plant response rating: Goosegrass ([2]; 125 g ai/ha): 100
Plant response rating: Goosegrass ([2]; 250 g ai/ha): 100
Plant response rating: Ryegrass, Italian ([3]; 16 g ai/ha): 0
Plant response rating: Ryegrass, Italian ([3]; 31 g ai/ha): 40
Plant response rating: Ryegrass, Italian ([3]; 62 g ai/ha): 85
Plant response rating: Ryegrass, Italian ([3]; 125 g ai/ha): 95
Plant response rating: Ryegrass, Italian ([3]; 250 g ai/ha): 100
Plant response rating: Cocklebur ([4]; 16 g ai/ha): 0
Plant response rating: Cocklebur ([4]; 31 g ai/ha): 0
Plant response rating: Cocklebur ([4]; 62 g ai/ha): 0
Plant response rating: Cocklebur ([4]; 125 g ai/ha): 50
Plant response rating: Waterhemp ([5]; 16 g ai/ha): 90
Plant response rating: Waterhemp ([5]; 31 g ai/ha): 98
Plant response rating: Waterhemp ([5]; 62 g ai/ha): 100
Plant response rating: Waterhemp ([5]; 125 g ai/ha): 100
Plant response rating: Waterhemp ([5]; 250 g ai/ha): 100
Plant response rating: Corn ([6]; 16 g ai/ha): 0
Plant response rating: Corn ([6]; 31 g ai/ha): 0
Plant response rating: Corn ([6]; 62 g ai/ha): 0
Plant response rating: Corn ([6]; 125 g ai/ha): 0
Plant response rating: Corn ([6]; 250 g ai/ha): 0
Plant response rating: Lambsquarters ([7]; 16 g ai/ha): 80
Plant response rating: Lambsquarters ([7]; 31 g ai/ha): 98
Plant response rating: Lambsquarters ([7]; 62 g ai/ha): 98
Plant response rating: Lambsquarters ([7]; 125 g ai/ha): 98
Plant response rating: Lambsquarters ([7]; 250 g ai/ha): 98
Plant response rating: Soybean ([8]; 16 g ai/ha): 0
Plant response rating: Soybean ([8]; 31 g ai/ha): 10
Plant response rating: Soybean ([8]; 62 g ai/ha): 25
Plant response rating: Soybean ([8]; 250 g ai/ha): 35
Plant response rating: Foxtail, Green ([9]; 16 g ai/ha): 25
Plant response rating: Foxtail, Green ([9]; 31 g ai/ha): 35
Plant response rating: Foxtail, Green ([9]; 62 g ai/ha): 50
Plant response rating: Foxtail, Green ([9]; 125 g ai/ha): 70
Plant response rating: Foxtail, Green ([9]; 250 g ai/ha): 100
Plant response rating: Sandbur ([10]; 16 g ai/ha): 5
Plant response rating: Sandbur ([10]; 31 g ai/ha): 5
Plant response rating: Sandbur ([10]; 62 g ai/ha): 15
Plant response rating: Sandbur ([10]; 125 g ai/ha): 50
Plant response rating: Sandbur ([10]; 250 g ai/ha): 50
Plant response rating: Surinam Grass ([11]; 16 g ai/ha): 5
Plant response rating: Surinam Grass ([11]; 31 g ai/ha): 10
Plant response rating: Surinam Grass ([11]; 62 g ai/ha): 25
Plant response rating: Surinam Grass ([11]; 125 g ai/ha): 65
Plant response rating: Surinam Grass ([11]; 250 g ai/ha): 100

COc1nn(-c2ccc(C(F)(F)F)cc2)nc1Cc1ccnc(C(F)(F)F)c1 [Compound 15, 4-[[5-methoxy-2-[4-(trifluoromethyl)phenyl]-2H-1,2,3-triazol-4-yl]methyl]-2-(trifluoromethyl)pyridine]
Plant response rating: Dayflower, VA ([1]; 16 g ai/ha): 5
Plant response rating: Dayflower, VA ([1]; 31 g ai/ha): 10
Plant response rating: Dayflower, VA ([1]; 62 g ai/ha): 25
Plant response rating: Dayflower, VA ([1]; 125 g ai/ha): 60
Plant response rating: Dayflower, VA ([1]; 250 g ai/ha): 95
Plant response rating: Goosegrass ([2]; 16 g ai/ha): 75
Plant response rating: Goosegrass ([2]; 31 g ai/ha): 100
Plant response rating: Goosegrass ([2]; 62 g ai/ha): 100
Plant response rating: Goosegrass ([2]; 125 g ai/ha): 100
Plant response rating: Goosegrass ([2]; 250 g ai/ha): 100
Plant response rating: Ryegrass, Italian ([3]; 16 g ai/ha): 20
Plant response rating: Ryegrass, Italian ([3]; 31 g ai/ha): 75
Plant response rating: Ryegrass, Italian ([3]; 62 g ai/ha): 80
Plant response rating: Ryegrass, Italian ([3]; 125 g ai/ha): 100
Plant response rating: Ryegrass, Italian ([3]; 250 g ai/ha): 100
Plant response rating: Cocklebur ([4]; 31 g ai/ha): 0
Plant response rating: Cocklebur ([4]; 62 g ai/ha): 0
Plant response rating: Cocklebur ([4]; 250 g ai/ha): 20
Plant response rating: Waterhemp ([5]; 16 g ai/ha): 98
Plant response rating: Waterhemp ([5]; 31 g ai/ha): 100
Plant response rating: Waterhemp ([5]; 62 g ai/ha): 100
Plant response rating: Waterhemp ([5]; 125 g ai/ha): 100
Plant response rating: Waterhemp ([5]; 250 g ai/ha): 100
Plant response rating: Corn ([6]; 16 g ai/ha): 0
Plant response rating: Corn ([6]; 31 g ai/ha): 0
Plant response rating: Corn ([6]; 62 g ai/ha): 0
Plant response rating: Corn ([6]; 125 g ai/ha): 5
Plant response rating: Corn ([6]; 250 g ai/ha): 10
Plant response rating: Lambsquarters ([7]; 16 g ai/ha): 90
Plant response rating: Lambsquarters ([7]; 31 g ai/ha): 100
Plant response rating: Lambsquarters ([7]; 62 g ai/ha): 100
Plant response rating: Lambsquarters ([7]; 125 g ai/ha): 100
Plant response rating: Lambsquarters ([7]; 250 g ai/ha): 100
Plant response rating: Soybean ([8]; 16 g ai/ha): 0
Plant response rating: Soybean ([8]; 31 g ai/ha): 0
Plant response rating: Soybean ([8]; 62 g ai/ha): 20
Plant response rating: Soybean ([8]; 125 g ai/ha): 35
Plant response rating: Soybean ([8]; 250 g ai/ha): 35
Plant response rating: Foxtail, Green ([9]; 16 g ai/ha): 20
Plant response rating: Foxtail, Green ([9]; 62 g ai/ha): 90
Plant response rating: Foxtail, Green ([9]; 125 g ai/ha): 100
Plant response rating: Foxtail, Green ([9]; 250 g ai/ha): 100
Plant response rating: Sandbur ([10]; 16 g ai/ha): 5
Plant response rating: Sandbur ([10]; 31 g ai/ha): 25
Plant response rating: Sandbur ([10]; 62 g ai/ha): 50
Plant response rating: Sandbur ([10]; 125 g ai/ha): 90
Plant response rating: Sandbur ([10]; 250 g ai/ha): 100
Plant response rating: Surinam Grass ([11]; 16 g ai/ha): 5
Plant response rating: Surinam Grass ([11]; 31 g ai/ha): 50
Plant response rating: Surinam Grass ([11]; 62 g ai/ha): 75
Plant response rating: Surinam Grass ([11]; 125 g ai/ha): 98
Plant response rating: Surinam Grass ([11]; 250 g ai/ha): 100

Cc1nn(-c2ccc(C(F)(F)F)cn2)nc1Oc1ccnc(C(F)(F)F)c1 [Compound 23]
Plant response rating: Dayflower, VA ([1]; 16 g ai/ha): 0
Plant response rating: Dayflower, VA ([1]; 31 g ai/ha): 0
Plant response rating: Dayflower, VA ([1]; 62 g ai/ha): 0
Plant response rating: Dayflower, VA ([1]; 125 g ai/ha): 5
Plant response rating: Dayflower, VA ([1]; 250 g ai/ha): 5
Plant response rating: Goosegrass ([2]; 16 g ai/ha): 0
Plant response rating: Goosegrass ([2]; 62 g ai/ha): 20
Plant response rating: Goosegrass ([2]; 125 g ai/ha): 35
Plant response rating: Goosegrass ([2]; 250 g ai/ha): 60
Plant response rating: Ryegrass, Italian ([3]; 16 g ai/ha): 0
Plant response rating: Ryegrass, Italian ([3]; 31 g ai/ha): 0
Plant response rating: Ryegrass, Italian ([3]; 62 g ai/ha): 0
Plant response rating: Ryegrass, Italian ([3]; 125 g ai/ha): 0
Plant response rating: Ryegrass, Italian ([3]; 250 g ai/ha): 10
Plant response rating: Cocklebur ([4]; 16 g ai/ha): 0
Plant response rating: Cocklebur ([4]; 31 g ai/ha): 0
Plant response rating: Cocklebur ([4]; 62 g ai/ha): 0
Plant response rating: Cocklebur ([4]; 125 g ai/ha): 0
Plant response rating: Cocklebur ([4]; 250 g ai/ha): 0
Plant response rating: Waterhemp ([5]; 16 g ai/ha): 0
Plant response rating: Waterhemp ([5]; 31 g ai/ha): 80
Plant response rating: Waterhemp ([5]; 62 g ai/ha): 80
Plant response rating: Waterhemp ([5]; 125 g ai/ha): 98
Plant response rating: Waterhemp ([5]; 250 g ai/ha): 100
Plant response rating: Corn ([6]; 16 g ai/ha): 0
Plant response rating: Corn ([6]; 31 g ai/ha): 0
Plant response rating: Corn ([6]; 62 g ai/ha): 0
Plant response rating: Corn ([6]; 125 g ai/ha): 0
Plant response rating: Corn ([6]; 250 g ai/ha): 20
Plant response rating: Lambsquarters ([7]; 31 g ai/ha): 0
Plant response rating: Lambsquarters ([7]; 62 g ai/ha): 0
Plant response rating: Lambsquarters ([7]; 125 g ai/ha): 98
Plant response rating: Lambsquarters ([7]; 250 g ai/ha): 98
Plant response rating: Soybean ([8]; 16 g ai/ha): 0
Plant response rating: Soybean ([8]; 31 g ai/ha): 0
Plant response rating: Soybean ([8]; 62 g ai/ha): 0
Plant response rating: Soybean ([8]; 125 g ai/ha): 0
Plant response rating: Soybean ([8]; 250 g ai/ha): 20
Plant response rating: Foxtail, Green ([9]; 16 g ai/ha): 0
Plant response rating: Foxtail, Green ([9]; 31 g ai/ha): 0
Plant response rating: Foxtail, Green ([9]; 62 g ai/ha): 5
Plant response rating: Foxtail, Green ([9]; 125 g ai/ha): 70
Plant response rating: Foxtail, Green ([9]; 250 g ai/ha): 95
Plant response rating: Sandbur ([10]; 16 g ai/ha): 0
Plant response rating: Sandbur ([10]; 31 g ai/ha): 0
Plant response rating: Sandbur ([10]; 62 g ai/ha): 0
Plant response rating: Sandbur ([10]; 125 g ai/ha): 25
Plant response rating: Sandbur ([10]; 250 g ai/ha): 65
Plant response rating: Surinam Grass ([11]; 16 g ai/ha): 0
Plant response rating: Surinam Grass ([11]; 31 g ai/ha): 0
Plant response rating: Surinam Grass ([11]; 62 g ai/ha): 10
Plant response rating: Surinam Grass ([11]; 125 g ai/ha): 20
Plant response rating: Surinam Grass ([11]; 250 g ai/ha): 20
